Where two headings read alike, the source gives them in different places.
Biological target: T1, progesterone receptors (PR) (Homo sapiens, UniProt P06401)
T1 sequence (P06401 1-933): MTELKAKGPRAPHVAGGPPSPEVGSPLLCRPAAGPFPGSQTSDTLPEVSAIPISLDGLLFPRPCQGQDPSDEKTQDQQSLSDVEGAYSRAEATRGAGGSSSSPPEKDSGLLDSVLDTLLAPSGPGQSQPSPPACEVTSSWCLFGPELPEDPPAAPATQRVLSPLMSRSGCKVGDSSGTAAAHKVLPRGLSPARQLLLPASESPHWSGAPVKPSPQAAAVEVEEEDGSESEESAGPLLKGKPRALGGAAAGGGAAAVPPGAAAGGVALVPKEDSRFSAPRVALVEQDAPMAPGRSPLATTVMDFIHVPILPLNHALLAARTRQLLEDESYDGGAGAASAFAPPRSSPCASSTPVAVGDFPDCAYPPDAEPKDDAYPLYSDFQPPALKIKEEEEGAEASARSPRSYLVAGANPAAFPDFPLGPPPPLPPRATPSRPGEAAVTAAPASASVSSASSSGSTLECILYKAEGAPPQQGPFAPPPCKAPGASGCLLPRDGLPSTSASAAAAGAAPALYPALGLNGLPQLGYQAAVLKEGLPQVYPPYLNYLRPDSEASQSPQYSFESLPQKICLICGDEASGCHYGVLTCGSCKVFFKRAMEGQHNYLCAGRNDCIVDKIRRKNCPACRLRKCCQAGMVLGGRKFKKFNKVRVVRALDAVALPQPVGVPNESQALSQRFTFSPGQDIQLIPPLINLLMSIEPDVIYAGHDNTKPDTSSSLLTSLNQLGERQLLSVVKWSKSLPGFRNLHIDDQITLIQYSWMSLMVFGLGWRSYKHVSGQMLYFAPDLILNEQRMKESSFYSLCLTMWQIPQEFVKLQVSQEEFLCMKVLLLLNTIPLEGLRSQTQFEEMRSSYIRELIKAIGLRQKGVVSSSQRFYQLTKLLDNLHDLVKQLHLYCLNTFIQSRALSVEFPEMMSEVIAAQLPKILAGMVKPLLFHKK
Experiment: PRE luciferase reporter assay and Quantigene branched DNA assay (TF, PPL) for progestin activity in T47D cells
Assay type: cell-based
Conditions: read-out: efficacies (percentage of the maximum P4 response)
Description: Progestin activity was measured using a common luciferase reporter system in cells expressing endogenous progesterone receptors (PR). T47D breast cancer cells were plated at 50,000 cells/well in 96 well plates in DMEM/F-12 supplemented with penicillin/streptomycin, Glutamax and 5% FBS (Gibco). Cells were infected with a 1:1000 dilution of an adenovirus vector expressing luciferase under the control of three copies of a consensus progesterone receptor regulatory element (PRE) located in the promoter region. Following a two-hour post-infection recovery, cells were treated for 20 hours with progesterone (P4) or test compounds. Luciferase reporter activity was quantified using the Luciferase Assay System (Promega) and a Victor2 luminometer (Perkin Elmer).
T47D cells were plated as in the PRE assay and treated with compound for 15 hours. Expression of tissue factor (TF), a PR-β isoform regulated gene, or periplakin (PPL), a PR-A regulated gene, was measured by the Quantigene branched DNA assay (Genospectra) using the Victor2 luminometer following the manufacturer's recommended protocol.
EC50 values were determined using the dose response nonlinear fit model from the SAS statistics package (SAS Institute Inc). Efficacies were calculated as a percentage of the maximum P4 response.

Compound | Emax (T47D breast cancer cells, percentage of maximum progesterone (P4) response, the text does not say which assay (PRE luciferase, TF, PPL) each value comes from) | Emax (T47D)
CO[C@H]1[C@H](O)[C@@H](O)[C@@H](Oc2ccc3c4c([nH]c3c2)[C@]2(C)[C@H](CC[C@@H]3C(C)(C)C(=O)C=C[C@]32C)C4)O[C@@H]1CO [(4aS,6aR,12bR,12cR)-4,4,12b,12c-tetramethyl-3-oxo-3,4,4a,5,6,6a,7,12,12b,12c-decahydrobenzo[6,7]indeno[1,2-b]indol-10-yl 4-O-methyl-α-D-glucopyranoside] | < 1% | 
CC1(C)C(=O)C=CC2(C)C3(C)c4[nH]c5ccccc5c4CC3CCC12O (centres unmarked) [4a-hydroxy-4,4,12b,12c-tetramethyl-4a,5,6,6a,7,12,12b,12c-octahydrobenzo[6,7]indeno[1,2-b]indol-3(4H)-one] |  | < 1%
